Data published in US20030186947A1, “Compounds having activity as inhibitors of cytochrome P450RAI” (priority 2000, published 2003).
Read-outs that look alike come from different tables or passages of the source.

Tested on: skin of hairless mice
Settings: topical in acetone, once daily days 1 through 5, mean ±SD, range 0-21
Description: This irritation is a direct result of activation of the RAR nuclear receptors. Analysis of retinoid topical irritation is also a highly reproducible method of determining in vivo retinoid potency. The SKH1-hrBR or hairless mouse provides a convenient animal model of topical irritation, since retinoid-induced skin flaking and abrasion can be readily scored by eye (Standeven et al., “Specific antagonist of retinoid toxicity in mice.” Toxicol. Appl. Pharmacol. 138:169-175, (1996); Thacher, et al., “Receptor specificity of retinoid-induced hyperplasia. Effect of RXR-selective agonists and correlation with topical irritation”. J. Pharm. Exp. Ther., 282:528-534, (1997)).
Female hairless mice (Crl:SKH1-hrBR), 5-7 weeks old, were obtained from Charles River Breeding Labs (Wilmington, Mass.). Animals were about 6 weeks old at the start of the experiments. Food (Purina Rodent Chow 5001) and reverse osmosis water were provided ad libitum. Mice were housed individually throughout the dosing period. In some experiments, mice that fit within a defined weight range, e.g., 21-25 g, were selected from the available stock and then randomly assigned to the various treatment groups, using body weight as the randomization variable.
The compounds to be tested were dissolved in acetone for application to the backs of the mice.
Mice were treated topically on the back in a volume of 4.0 ml/kg (0.07-0.12 ml) adjusted daily so as to deliver a fixed dose of test compound per g body weight. Doses are disclosed as nmol/25 g.
The mice were weighed daily and the dorsal skin was graded daily using separate semi-quantitative scales to determine flaking and abrasion. These flaking and abrasion scores were combined with weight change (if any) to create a cutaneous toxicity score (Blackjack score).
A visual grading scale was used for characterizing topical irritation on a daily basis. The grading scale used is as follows:
The flaking and abrasion observations were combined with body weight observations to calculate a single, semiquantitative topical or cutaneous “toxicity score” as detailed below. The toxicity score (also known as “blackjack score” since the theoretical maximum is 21) takes into account the maximal severity, and the time of onset of skin flaking and abrasions and the extent of weight between the first and last days of the experiment. Below are listed the seven numerical components of the toxicity score and an explanation of how those values are combined to calculate the toxicity score.
Flaking onset score (2) and average severity score (3) are summed and divided by two. The quotient is added to the maximal severity score (1). Composite flaking scores are calculated for each individual animal in a group, averaged, and rounded to the nearest integer. Values can range from 0-9.
Abrasion onset score (5) and average severity score (6) are summed and divided by two. The quotient is added to the maximal severity score (4). Composite abrasion scores are calculated for each individual animal in a group, averaged and rounded to the nearest integer. Values can range from 0-8.
Composite flaking score, composite abrasion score, and systemic toxicity score are summed to give the “toxicity score.” Toxicity scores are calculated for each individual animal in a group, averaged, and rounded to the nearest integer. Values can range from 0-21 and are expressed in Table 1A below as the mean ±SD of the values for a group.

Row | Structure (SMILES) | Cutaneous Toxicity Score (Blackjack Score) (100 nmole (nmol/25 g)) | Cutaneous Toxicity Score (Blackjack Score) (1000 nmole (nmol/25 g)) | Cutaneous Toxicity Score (Blackjack Score) (300 nmole (nmol/25 g))
1 | CC1(C)CCC(=O)c2ccc(C#Cc3ccc(CC(=O)O)c(F)c3)cc21 [Compound 15, [2-Fluoro-4-(8.8-dimethyl-5-oxo-5,6,7,8-tetrahydro-naphthalene-2-yl-ethynyl)phenyl]-acetic acid] | 1 ± 1 | 5 ± 2 | –
2 | CCN(Cc1ccc(C#Cc2ccc(CC(=O)O)cc2)cc1C)C1CC1 [Compound 131] | 1 ± 1 | 1 ± 1 | 0 ± 1
